From a melting point compilation (Tetko et al.; mined from patent text by program, amines drawn as free bases though some values may be those of a salt)

SMILES	melting point [°C]
CCOC(=O)c1cn(C(C)F)c2cc(-n3cccc3)c(F)cc2c1=O (stereo not drawn)	231 to 234
CN1CCC[C@H]1c1ccc(Cl)cc1P(c1cccc2ccccc12)c1cccc2ccccc12	224 to 226
NCCc1ccc(CCNS(=O)(=O)c2ccc(Cl)cc2)cc1	90 to 93
COc1cc2c(cc1OC)[C@@H]1CN(C)CC[C@@H]1N=C2c1ccc(C)c(C)c1 (relative stereo)	182 to 184
O=C(N1CCCC1)N1Cc2c(-c3noc(C4CC4)n3)ncn2-c2cccc(F)c21	220 to 222
COC(=O)NCC(C)(C)c1ccc(NC(=O)c2ccc(OC)c(OC)c2)cc1	67 to 69
COC(=O)/C=C/c1ccc(OCc2oc(-c3ccc(C(F)(F)F)cc3)nc2C)cc1C	124 to 126
CCN(CC)c1ccc(-c2cc(-c3ccc(C(=O)O)cc3)ccc2O)cc1C(F)(F)F	195
CN(C(=O)OC(C)(C)C)C1CCN(c2nc(N3CCOCC3)nc(-n3c(C(F)F)nc4c(O)cccc43)n2)CC1	220 to 222
Nc1nc(N)nc(C23CCN(CC2)CC3)n1	> 245
CC(C)COc1c(-c2ccc(S(C)(=O)=O)cc2)cnn(-c2cccc(Cl)c2)c1=O	166 to 169
COC(=O)C(C)Oc1cc(Cl)ccc1CO (stereo not drawn)	51 to 52
C#Cc1cccc(-n2ncc3c(NCc4ccc5c(c4)OCCO5)ncnc32)c1	161
CC1(C(=O)c2c[nH]c3ncc(-c4ccc(N5CCNCC5)cc4)nc23)CCCCC1	214 to 216
CC(C)(C)OC(=O)NC12CCC1CN(c1c(F)cc3c(=O)c(C(=O)O)cn(C4CC4)c3c1F)C2 (stereo not drawn)	211 to 215
CC(=O)OC1CSC(Oc2ccc(Cl)nc2)C(OC(C)=O)C1OC(C)=O (stereo not drawn)	141
CCCCc1c(C(=O)c2cccnc2)c2ccccc2n1C	89 to 90
CCOC(=O)Cn1c(-c2ccc(Cl)cc2)nc2cccnc21	123 to 124
ClC[Si](c1ccc(Cl)cc1)(c1ccc(Cl)cc1)c1ccc(Cl)cc1	89 to 93
COC(=O)c1scc(C)c1NC(=O)CC12CC3CC(CC(C3)C1)C2	124
Cc1cc(C(=O)O)ccc1N1CCN(C(=O)OC(C)(C)C)CC1	175 to 179
CCN(CC)C(=O)c1ccc(C(=C2CCN(Cc3ccccc3)CC2)c2ccc(Cl)cc2)cc1	100 to 110
CC1COC(Cn2nc[nH]c2=S)(c2ccc(Oc3ccc(Cl)cc3)cc2Cl)O1 (stereo not drawn)	130
O=C(O)CCCNC(=O)S[C@@H]1CC(=O)N(Cc2ccc(Oc3ccc(F)cc3)nc2)C1	131 to 132
N#Cc1ccc(-c2cc(-c3ccc(C#N)cc3Cl)no2)cc1	247 to 248
COC(=O)CCCCN(CCc1c[nH]c2ccccc12)CC(C)C	103 to 104
CC(C)(Oc1ccc(C2CCOCC2)cc1)C(=O)O	112
Cc1ccc(N(C)C2CCN(CC(=O)Nc3ccc(NS(C)(=O)=O)cc3)CC2)cc1	128 to 130

SMILES	melting point [°C]
CCCSP(=O)(OCC)Oc1ccc2cc3ccccc3cc2c1 (stereo not drawn)	79 to 83
CCCCc1ccc(-c2nc3c(s2)C(=O)C(NCCN(C)C)=CC3=O)cc1	126 to 127
Cc1ccc(C2COc3c(C)c(C)c(N)c(C)c32)nc1 (stereo not drawn)	125 to 127
CN1C2C=C(c3c[nH]c(-c4ccc(F)cc4)c3-c3ccncc3)CC1CC2 (stereo not drawn)	243 to 245
CCOC(=O)C1=C(N)NC(N)=C(C(=O)OCC)C1c1cccc([N+](=O)[O-])c1	175 to 176
CCCCCCCCCCCNC(=O)N(CC)CC	33 to 35
Cc1cc(-c2[nH]nc3c2C(=O)c2c(NC(N)=O)cccc2-3)c(C)s1	> 280
Cc1oc(-c2ccccc2)nc1CCOc1ccc(C[C@H](NC(=O)C=Cc2ccc(F)c(F)c2)C(=O)O)cc1	204 to 206
COC(=O)C1OC(Oc2ccc(C=O)cc2[N+](=O)[O-])C(OC(C)=O)C(OC(C)=O)C1OC(C)=O (stereo not drawn)	180 to 182
CC(C)C[C@H](NC(=O)OCc1ccccc1)C(=O)N[C@@H](CC(N)=O)C(=O)NC(Cc1ccccc1)C(O)C(Cc1ccccc1)NC(=O)OC(C)(C)C (stereo partly drawn)	192 to 194
ON=CC1=NCCCS1	114 to 115
CCN(CC)C(=O)ON=C(C(=O)N(C)C)C(C)=NOC	59 to 61
CC(=O)N1[C@@H](c2ccc(F)cc2)SC(C)(C)[C@@H]1C(=O)O	144 to 146
COc1cc2c(cc1OC(C)C)-c1c(-c3cccnc3)c3c(n1CC2)C(=O)N(C(C)(C)C)CCOC3	193 to 194
CCC(CO)(OC)c1ccc(-c2ccc(OC)cc2)cc1 (stereo not drawn)	108 to 109
C#Cc1ccc2c(c1)C(c1ccccc1Cl)=NCc1nnc(C)n1-2	304 to 306
COc1cc(NC(=O)CC23CC4CC(CC(C4)C2)C3)cc(OC)c1	144 to 146
C=CCC1COC(CC)(CC(=O)O)c2[nH]c3c(C)c(F)ccc3c21 (stereo not drawn)	138 to 140
CC(=O)OCC1=C(C(=O)O)N2C(=O)C(=NSc3ccc(C)cc3)C2SC1 (stereo not drawn)	204 to 206
CCN(Cc1ccc(F)nc1)C(=S)NC	123 to 124
Cc1cccc(NC(=O)NC2N=C(c3ccccc3F)c3ccccc3N(Cc3cc(C(C)(C)C)ccn3)C2=O)c1 (racemic)	142 to 144
OC[C@H]1C[C@@H](n2cnc3c(N[C@H]4CCN(c5ccc(C(F)(F)F)cc5)C4)ncnc32)[C@H](O)[C@@H]1O	111 to 114
CCCCOCCOc1ccc(-c2ccc3c(c2)C=C(C(=O)Nc2ccc(C(O)c4ccccn4)c(OCC(F)(F)F)c2)CCN3C(=O)C(F)(F)F)cc1 (stereo not drawn)	178 to 181
Nc1nc(I)nc2c1ncn2C1OC(CO)C(O)C1O (stereo not drawn)	141 to 144
CC(c1ccc(CCn2c(=O)[nH]c3cc(-c4ccc(F)cc4)sc3c2=O)cc1)N1CCCC1 (stereo not drawn)	260 to 264
C[C@@H](O)[C@H]1CC[C@H]2[C@@H]3C=CC4=CC(=O)C=C[C@]4(C)[C@H]3CC[C@]12C	162 to 164
N#Cc1c(C(F)(F)F)nn(-c2c(Cl)cc(C(F)(F)F)cc2Cl)c1N(C(=O)C1CC1)C(=O)C1CC1	126 to 127

Next, values leading:

melting point [°C]	SMILES
133 to 134	COC(=O)c1cccc(C(=O)c2ccc(O)c(OC)c2)c1
116	C[C@@H]1OC(=O)N[C@H]1Cc1ccccc1
199 to 201	CC(=O)c1ccccc1-c1ccc(C(=O)O)cc1
120 to 124	CC(C)(C)OC(=O)NCCCCO/N=C(\C(=O)O)c1csc(NC(c2ccccc2)(c2ccccc2)c2ccccc2)n1
193	COc1cc(-c2cc(-c3ccccn3)no2)cc2oc(=O)c(C)c(C)c12
100 to 102	CCn1ncc2cc3c(nc21)CCc1ccccc1C3(O)CCCN(C)C (stereo not drawn)
221 to 223	Cc1ccc(S(=O)(=O)Nc2cc(C(=O)O)c3c(c2)C(C(=O)O)CCN3)cc1 (stereo not drawn)
290 to 297	COc1cc2[nH]c(=O)c3c(c2cc1OC)CCN(C(=O)c1ccccc1)C3
165 to 168	COc1cc2c(=O)c(C)cn3c4ccccc4c(c1)c23
185 to 187	Cc1ccc(Cl)c(Nc2ccccc2CON=CC(=O)O)c1Cl
150 to 152	CCOCc1nc2c(N)nc3ccccc3c2n1CCCC1(C)OCCO1
184 to 185	O=C(O)CCC1=C(n2nc(-c3c(-c4ccccc4)nn4ccccc34)ccc2=O)CCCC1
197	COc1ccc2sc(C(=O)O)c(Oc3ccccc3)c2c1
84	O=Cc1ccc(Cl)c(-c2ccccc2)c1
165 to 168	O=C1C=C(NNc2ccccc2)CCN1
126 to 127	O=C(O)Cc1ccc(-c2ccccc2F)c(F)c1
93 to 94	Cc1oc(-c2ccccc2)nc1CCc1noc(COc2cccc(CC(=O)O)c2)n1
104 to 106	CS(=O)(=O)Nc1ccccc1OC1CCCCC1=O (stereo not drawn)
170	C/C(=N\O)c1cccc(NC(=O)NCC(=O)N(CC(=O)N(C)c2ccccc2)c2ccccc2)c1
159 to 160	Cc1sc(-c2ccccc2F)nc1O
215 to 217	Cc1ccccc1CNc1nc(Cl)nc2ccccc12
292 to 293	COc1nc2cc(Cl)c(Cl)c(NS(=O)(=O)c3ccccc3)c2nc1OC

melting point [°C]	SMILES
157 to 158	O=C(NC1CCN(CCCOc2ccc3ccc(=O)oc3c2)CC1)c1ccccc1
56 to 57	CCCCNC(=O)Cc1ccccc1
114 to 115	CCOC(=O)c1cc(=O)c2ccccc2n1C
165 to 167	O=C(OCc1ccc([N+](=O)[O-])cc1)C(=O)c1ccccc1C(=O)O
77 to 80	O=C(O)C1CCC=C(c2ccccc2)C1 (stereo not drawn)
170 to 172	COC(=O)c1ccc2c(c1)C(=O)CCC2
168 to 170	CCC(C)c1ccc2ccccc2c1C(=O)O (stereo not drawn)
120 to 124	CC(CCC(=O)O)c1ccc2c(c1)C(=O)c1ccccc1CO2 (stereo not drawn)
150 to 154	COCCNC(=O)c1c(O)c2cnc(-c3ccccc3)nc2n(CCOC)c1=O
176	O=Cc1c2ccccc2c(Cl)c2ccc(Cl)cc12
77 to 78	CC(=O)OCCCn1cc(C2=C(c3ccccc3[N+](=O)[O-])C(=O)NC2=O)c2ccccc21
223 to 226	c1cc(Nc2nnc3c4c(cccc24)-c2ccccc2-3)cc(-n2ccnc2)c1
73 to 75	CCOc1ccc(OCCOCCOC)c2c1C(=O)N(CSc1ccccc1)S2(=O)=O
212 to 213	O=C(Nc1cccc(S(=O)(=O)C(F)(F)F)c1)c1cc2ccccc2cc1O
174 to 175	OC(c1ccccc1)(c1cccc(Cl)c1)c1ncc[nH]1 (stereo not drawn)
167 to 168	CC(C)(C)C(=O)C(Br)C(c1ccc(Cl)cc1)S(=O)(=O)c1ccccc1 (stereo not drawn)
102 to 103	CSc1ccc2c(c1)C(=O)Cc1cc(C)ccc1O2
62 to 64	N#Cc1ccc(C(CC2CCCC2)C(=O)Nc2nccs2)cc1 (stereo not drawn)
235 to 236	COC(=O)c1c(Cc2ccc(C(=O)N(C)C)nc2)c(=O)c2ccc(C)nc2n1-c1ccccc1
97 to 98	COC(=O)CCc1ccc(OCc2sc3ccccc3c2Cl)cc1
260 to 266	CN1CCN2c3ccccc3Cn3c(c(C=O)c4ccccc43)C2C1 (stereo not drawn)
